Here are results for 11 compounds from paper PMC6471528, “Biological Evaluation and Molecular Docking Studies of Dimethylpyridine Derivatives” (Molecules, 2019).

For experiment [1], the system named is A549 (pulmonary basal cell alveolar adenocarcinoma). Nature of the experiment: Sulforhodamine B cytotoxicity assay, A549. The class given is cell-based. As to conditions: Homo sapiens, SRB assay, 48 h, mean (SD), n = 3. From the text: (§1) The sulforhodamine B assay was used to estimate the cytotoxic properties of the compounds. The cytotoxic activity of dimethylpyridine derivatives was studied against human cancer cell lines: A549 (pulmonary basal cell alveolar adenocarcinoma) and LoVo (colon adenocarcinoma). Additionally, the effect of compounds on NHDF (normal human dermal fibroblasts) and normal cell line V79 (fibroblast from Chinese hamster lung) was examined.
(§2) Normal human dermal fibroblasts (NHDF) from adult donors were purchased from Lonza (Verviers, Belgium). Normal cell line V79 (fibroblast from Chinese hamster lung) and human cancer cell lines, A549 (pulmonary basal cell alveolar adenocarcinoma) and LoVo (colon adenocarcinoma) were obtained from the European Collection of Authenticated Cell Cultures (ECACC).
(§3) Cells were grown in the culture media recommended by the cell line supplier. Before the test, adherent cells were detached with the trypsin EDTA solution, and FBS-containing medium was used to neutralize the effects of the trypsin/EDTA solution. After that, cells were spun down, counted, stained with a 0.4% solution of trypan blue and inspected under a microscope for cell viability. Then, cells were placed on 96-well plastic culture plates (2 × 10^3 cells/well) and incubated at 37 °C in a CO2-incubator for 24 h. Afterwards, all the tested compounds were added at appropriate final concentrations (100 µM, 50 µM, 20 µM, 10 µM, 5 µM), and the cultures were incubated for 48 h in CO2-incubator at 37 °C. Finally, cells were harvested and intended for the cell proliferation test.
(§4) Cell density/cell proliferation was estimated with the sulforhodamine B (SRB)-colorimetric assay. Briefly, cell cultures were fixed with cold TCA (final concentration 10% (w/v) in cultures of adherent cells for 1 h at 4 °C, then washed four times with tap water and air-dried at room temperature (20–25 °C). A mildly-acidic SRB solution (0.4% dye solution in 1% acetic acid) was added to each well for 30 min at 25 °C. Then, the unbound stain was removed by rinsing with an aqueous solution of 1% (v/v) acetic acid. Culture plates were then allowed to dry at room temperature. The protein-bound dye was dissolved in 10 mM Tris base solution (pH 10.5) for 10 min on a gyratory shaker. Absorbance of the SRB solution was estimated at 540 nm in a Victor 2 microplate reader (Perkin-Elmer, Waltham, MA, USA).
In general terms: In SRB staining, fixed cells bind dye roughly in proportion to their protein.

Experiment [2] has as its system LoVo (colon adenocarcinoma). In words: Sulforhodamine B cytotoxicity assay, LoVo. In kind it is cell-based. The following applies: Homo sapiens, SRB assay, 48 h, mean (SD), n = 3.
Description: as §1, §2, §3, §4

Experiment [3] has as its system V79 (fibroblast from Chinese hamster lung). Nature of the experiment: Sulforhodamine B cytotoxicity assay, V79. The class given is cell-based. As to conditions: Cricetulus griseus, SRB assay, 48 h, mean (SD), n = 3.
Description: as §1, §2, §3, §4

For experiment [4], the system named is NHDF (normal human dermal fibroblasts). In words: Sulforhodamine B cytotoxicity assay, NHDF. In kind it is cell-based. The following applies: SRB assay, 48 h, mean (SD), n = 3.
Description: as §1, §2, §3, §4

The next experiment has as its target T1, COX-2 (Homo sapiens, UniProt P35354).
T1 construct: purchased Cayman Chemical Company
T1 sequence (P35354 18-604): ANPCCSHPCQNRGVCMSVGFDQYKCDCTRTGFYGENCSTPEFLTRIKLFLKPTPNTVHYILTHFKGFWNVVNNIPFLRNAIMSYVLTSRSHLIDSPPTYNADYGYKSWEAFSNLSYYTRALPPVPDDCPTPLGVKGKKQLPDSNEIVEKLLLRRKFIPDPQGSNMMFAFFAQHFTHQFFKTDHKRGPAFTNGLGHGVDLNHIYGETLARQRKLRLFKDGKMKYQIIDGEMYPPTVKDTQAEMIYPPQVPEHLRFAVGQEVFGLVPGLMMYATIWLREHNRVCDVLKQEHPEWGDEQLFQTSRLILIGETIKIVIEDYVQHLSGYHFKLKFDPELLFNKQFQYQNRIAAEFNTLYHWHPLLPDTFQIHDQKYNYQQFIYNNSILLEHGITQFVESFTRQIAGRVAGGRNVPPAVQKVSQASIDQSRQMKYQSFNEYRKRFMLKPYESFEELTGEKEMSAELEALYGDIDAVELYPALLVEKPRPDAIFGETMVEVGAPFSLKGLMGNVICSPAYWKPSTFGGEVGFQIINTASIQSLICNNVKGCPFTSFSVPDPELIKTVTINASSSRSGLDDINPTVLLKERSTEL
In words: COX colorimetric inhibitor screening assay (TMPD oxidation), COX-2. In kind it is biochemical. As to conditions: for Ratio: COX-2/COX-1: ratio of IC50 values COX-2/COX-1; for IC50: read-out: IC50 (µM),(SD) COX-2; for inhibitory activity on COX-2 (in words): 2 min of incubation. The protocol: (§5) The compounds were investigated for their potencies to inhibit COX-1 and COX-2 enzymes by the colorimetric inhibitor screening assay.
(§6) Selectivity of the compounds to COX-1 or to COX-2 was assessed by calculation of the IC50 ratios.
(§7) This method allows one to estimate the peroxidase activity of COX by colorimetric monitoring of the occurrence of the oxidized form of N,N,N′,N′-tetramethyl-p-phenylenediamine (TMPD) at 590 nm. TMPD is a substrate for most enzymes with peroxidase activity, and high throughput microplate assays using TMPD allow the rapid screening of a wide range of therapeutics that inhibit COX activity in vitro.
(§8) The test is based on the oxidation of TMPD during the reduction of PGG2 (prostaglandin G2) to PGH2, which is reflected by a change in colour, measured spectrophotometrically (Victor2 microspectrophotometer, PerkinElmer Waltham, MA, USA). The assay uses Tris-HCl buffer (0.1 M assay buffer, pH 8.0), a solution of heme in dimethylsulfoxide (DMSO), enzymes (COX-1, COX-2), arachidonic acid (100 μM), KOH (0.1 M) and a solution of TMPD. The assay mixture contains: 150 µL of assay buffer, 10 µL of heme and 10 µL of COX-1 or COX-2. In order to determine 100% enzyme activity (each COX sample was assayed in triplicate), 10 µL of the substances used as solvents (methanol, ethanol, DMSO) was added to the wells. Ten microlitres of tested inhibitors at appropriate concentrations were added to the other wells. Twenty microlitres of TMPD were added to all wells. The reaction was initiated by the addition of arachidonic acid.
(§9) The effect of tested inhibitors on COX-1 and COX-2 enzyme activity was measured by assaying the rate of TMPD oxidation within 2 min in a spectrophotometer at 590 nm.
(§10) The activity factor at 2 min of incubation with the tested compounds in comparison to the initial activity of the enzyme was determined.

The target in a further experiment is T2, COX-1 (Ovis aries, UniProt P05979).
T2 construct: purchased Cayman Chemical Company
T2 sequence (P05979 25-600): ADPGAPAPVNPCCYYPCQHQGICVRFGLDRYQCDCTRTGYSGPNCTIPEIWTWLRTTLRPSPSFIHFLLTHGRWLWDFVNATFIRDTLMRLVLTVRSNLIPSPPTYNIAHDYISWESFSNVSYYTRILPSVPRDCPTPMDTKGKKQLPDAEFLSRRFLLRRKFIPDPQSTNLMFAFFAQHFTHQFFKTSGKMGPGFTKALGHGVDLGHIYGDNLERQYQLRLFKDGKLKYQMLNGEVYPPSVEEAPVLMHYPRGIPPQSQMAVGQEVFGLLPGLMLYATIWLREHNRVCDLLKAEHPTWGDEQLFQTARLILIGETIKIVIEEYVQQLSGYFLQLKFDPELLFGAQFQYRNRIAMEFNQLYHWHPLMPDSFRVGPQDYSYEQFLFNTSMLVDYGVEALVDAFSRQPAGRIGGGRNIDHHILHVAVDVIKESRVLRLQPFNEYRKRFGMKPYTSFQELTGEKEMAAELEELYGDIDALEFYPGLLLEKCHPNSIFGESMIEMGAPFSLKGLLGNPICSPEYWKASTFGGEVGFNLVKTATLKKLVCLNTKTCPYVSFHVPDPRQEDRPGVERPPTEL
Nature of the experiment: COX colorimetric inhibitor screening assay (TMPD oxidation), COX-1. In kind it is biochemical. As to conditions: for IC50: read-out: IC50 (µM),(SD) COX-1; for inhibitory activity on COX-1 (in words): 2 min of incubation. Here is the method: as §5, §6, §7, §8, §9, §10

What is called IC50 is the midpoint of a concentration-inhibition curve. Consider `Cc1cnc(NC(=O)C2=C(O)c3ccccc3S(=O)(=O)N2C)s1` [Meloxicam, reference compound], for which the IC50 in experiment [1] was 148 µM; in experiment [2], 125 µM; in experiment [3], 232 µM; in experiment [4] it was 206 µM.

Turning to `Cc1cc(C)c(C(=O)NCC(=O)N/N=C/c2ccccc2)c(S)n1` [PS18, N′-phenylmethylene derivative], at COX-2, the “Ratio: COX-2/COX-1” value amounted to 2.4. The IC50 on COX-2 was 139 µM; at COX-1, 57.3 µM; in experiment [1], 154 µM; in experiment [2], 135 µM; in experiment [3] it was 275 µM; in experiment [4], 171 µM.

For the compound `Cc1ccc(/C=N/NC(=O)CNC(=O)c2c(C)cc(C)nc2S)cc1` [PS33, N′-4-methylphenylmethylene derivative], the “Ratio: COX-2/COX-1” value at COX-2 came to 2.8. The 50% inhibitory concentration (IC50) on COX-2 came out at 143 µM; on COX-1, 51.8 µM; in experiment [1], 156 µM; in experiment [2], 131 µM; in experiment [3], 178 µM; in experiment [4], 159 µM.

Regarding `Cc1cc(C)c(C(=O)NCC(=O)N/N=C/c2cccc3ccccc23)c(S)n1` [PS34, N′-naphtylmethylene derivative], the “inhibitory activity on COX-2 (in words)” value against COX-2 was “no inhibitory activity”. Moreover, on COX-1, the “inhibitory activity on COX-1 (in words)” value is “no inhibitory activity”. Further, inhibition in experiment [3] was half-maximal at 421 µM (IC50).

Turning to `Cc1cc(C)c(C(=O)NCC(=O)N/N=C/c2c3ccccc3cc3ccccc23)c(S)n1` [PS35], the “inhibitory activity on COX-2 (in words)” value against COX-2 is on record as “no inhibitory activity”. The “inhibitory activity on COX-1 (in words)” value against COX-1 was “no inhibitory activity”. For the same compound, the IC50 in experiment [2] stood at 212 µM; in experiment [3] it was 196 µM; in experiment [4], 202 µM.

Take `Cc1cc(C)c(C(=O)NCC(=O)N/N=C/c2ccc([N+](=O)[O-])cc2)c(S)n1` [PS36]: the IC50 at COX-2 turned out to be 731 µM; in experiment [1], 164 µM; in experiment [2] it was 99.8 µM; in experiment [3], 141 µM; in experiment [4], 144 µM. For the same compound, the “inhibitory activity on COX-1 (in words)” value against COX-1 is “did not show any inhibitory activity”.

As for `Cc1cc(C)c(C(=O)NCC(=O)N/N=C/c2ccc(C(F)(F)F)cc2)c(S)n1` [PS38], on COX-2, the “inhibitory activity on COX-2 (in words)” value is given as “no inhibitory activity”. The “inhibitory activity on COX-1 (in words)” value against COX-1 is given as “no inhibitory activity”. The IC50 in experiment [1] is 504 µM; in experiment [3], 172 µM.

Consider `Cc1cc(C)c(C(=O)NCC(=O)N/N=C/c2cc([N+](=O)[O-])ccc2Cl)c(S)n1` [PS39], for which, on COX-2, the “inhibitory activity on COX-2 (in words)” value is “no inhibitory activity”. Further, the “inhibitory activity on COX-1 (in words)” value against COX-1 is given as “no inhibitory activity”. For the same compound, the IC50 was determined as 120 µM in experiment [1], 103 µM in experiment [2], 147 µM in experiment [3] and 391 µM in experiment [4].

As for `Cc1cc(C)c(C(=O)NCC(=O)N/N=C/c2ccc(Cl)cc2Cl)c(S)n1` [PS41], the “inhibitory activity on COX-2 (in words)” value against COX-2 is reported as “no inhibitory activity”. Further, the “inhibitory activity on COX-1 (in words)” value on COX-1 was “no inhibitory activity”. For the same compound, the IC50 in experiment [1] came out at 220 µM; in experiment [2], 154 µM; in experiment [3], 418 µM; in experiment [4], 336 µM.

As for `CCOc1ccccc1/C=N/NC(=O)CNC(=O)c1c(C)cc(C)nc1S` [PS42], the “Ratio: COX-2/COX-1” value on COX-2 was 2.4. The concentration for half-maximal inhibition (IC50) at COX-2 came out at 177 µM; at COX-1, 72.8 µM; in experiment [1] it was 140 µM; in experiment [2], 133 µM; in experiment [3], 162 µM; in experiment [4] it was 132 µM.

Take `CN1C(C(=O)Nc2ccccn2)=C(O)c2ccccc2S1(=O)=O` [Piroxicam, reference compound]: the IC50 in experiment [1] stood at 138 µM; in experiment [2], 122 µM; in experiment [3] it was 200 µM.
